These results are taken from ChEMBL document CHEMBL1153866, “Design, synthesis and evaluation of galanthamine derivatives as acetylcholinesterase inhibitors” (Eur J Med Chem, 2009).

The target of one assay is T1, Acetylcholinesterase (Rattus norvegicus, UniProt P37136).
T1 sequence (P37136 whole entry): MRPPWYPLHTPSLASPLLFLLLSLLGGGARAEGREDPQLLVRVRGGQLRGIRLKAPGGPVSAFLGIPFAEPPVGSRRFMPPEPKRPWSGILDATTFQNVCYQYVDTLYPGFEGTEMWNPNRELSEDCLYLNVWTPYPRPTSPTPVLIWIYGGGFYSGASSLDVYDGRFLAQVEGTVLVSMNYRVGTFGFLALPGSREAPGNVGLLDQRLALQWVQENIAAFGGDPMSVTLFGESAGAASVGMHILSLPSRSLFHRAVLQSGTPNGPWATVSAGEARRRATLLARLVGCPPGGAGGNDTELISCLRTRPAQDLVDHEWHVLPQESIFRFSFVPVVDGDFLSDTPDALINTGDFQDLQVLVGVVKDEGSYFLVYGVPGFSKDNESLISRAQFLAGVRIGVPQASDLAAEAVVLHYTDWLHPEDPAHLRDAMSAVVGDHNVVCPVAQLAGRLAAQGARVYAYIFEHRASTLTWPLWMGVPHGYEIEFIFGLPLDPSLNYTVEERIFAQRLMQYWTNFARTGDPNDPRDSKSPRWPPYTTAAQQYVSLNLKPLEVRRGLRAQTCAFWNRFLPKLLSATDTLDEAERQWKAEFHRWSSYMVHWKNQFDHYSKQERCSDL
Description: Inhibition of AChE from rat cortex homogenate by Ellmans method. (DTNB colorimetry detects thiols as they appear.)

The target in a further assay is Butyrylcholinesterase (Rattus norvegicus, UniProt Q9JKC1). Briefly: Inhibition of BChE from rat serum by Ellmans method. It counts as cell-free.
Sequence of Butyrylcholinesterase (Q9JKC1 whole entry): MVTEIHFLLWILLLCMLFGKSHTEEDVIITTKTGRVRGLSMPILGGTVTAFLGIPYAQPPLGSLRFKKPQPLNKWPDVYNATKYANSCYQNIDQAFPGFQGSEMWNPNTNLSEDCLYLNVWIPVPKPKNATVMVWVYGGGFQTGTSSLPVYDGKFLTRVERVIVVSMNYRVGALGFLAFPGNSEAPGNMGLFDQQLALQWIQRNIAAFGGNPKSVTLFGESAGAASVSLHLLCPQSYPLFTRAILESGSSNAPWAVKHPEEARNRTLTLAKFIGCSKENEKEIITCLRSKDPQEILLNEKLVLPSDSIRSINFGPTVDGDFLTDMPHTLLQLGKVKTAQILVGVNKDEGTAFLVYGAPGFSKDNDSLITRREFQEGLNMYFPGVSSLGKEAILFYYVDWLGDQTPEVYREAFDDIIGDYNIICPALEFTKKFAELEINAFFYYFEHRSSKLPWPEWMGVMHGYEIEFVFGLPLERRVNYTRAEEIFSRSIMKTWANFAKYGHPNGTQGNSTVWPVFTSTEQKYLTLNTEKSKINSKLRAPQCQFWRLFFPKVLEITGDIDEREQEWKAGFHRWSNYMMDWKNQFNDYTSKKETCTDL

A word on the IC50: it is the concentration that gives 50% inhibition.

Regarding `COc1ccc2c3c1O[C@H]1C[C@@H](O)C=C[C@@]31CCN(CCCCOc1cccc(C(C)N3CCOCC3)c1)C2` (some centres not stated), the values for the IC50 against Acetylcholinesterase and at Butyrylcholinesterase were 94.1 nM and 7100 nM, respectively. `CCN(CC)Cc1ccc(OCCCCN2CC[C@@]34C=C[C@H](O)C[C@@H]3Oc3c(OC)ccc(c34)C2)cc1`: the values for the IC50 at Acetylcholinesterase and at Butyrylcholinesterase were 14.6 nM and 34000 nM, respectively.

Turning to `COc1ccc2c3c1O[C@H]1C[C@@H](O)C=C[C@@]31CCN(CCCCOC1CCN(Cc3ccccc3)CC1)C2`, the values for the IC50 on Acetylcholinesterase and against Butyrylcholinesterase were 306 nM and 4300 nM, respectively. Take `COc1ccc2c3c1O[C@H]1C[C@@H](O)C=C[C@@]31CCN(CCCCCCCCCCOc1ccc(CN3CCCCC3)cc1)C2`: the values for the IC50 against Acetylcholinesterase and against Butyrylcholinesterase were 61.2 nM and 93000 nM, respectively. At Butyrylcholinesterase, `COc1ccc2c3c1O[C@H]1C[C@@H](O)C=C[C@@]31CCN(CCCCCOc1ccc(CN3CCCCC3)cc1)C2` came in with a half-inhibitory concentration (IC50) of 29000 nM. As for `COc1ccc2c3c1O[C@H]1C[C@@H](O)C=C[C@@]31CCN(CCCCOc1ccc(CN3CCCCC3)cc1)C2`, the values for the concentration for half-maximal inhibition (IC50) against Acetylcholinesterase and against Butyrylcholinesterase were 12.4 nM and 28000 nM, respectively.

Regarding `COc1ccc2c3c1O[C@H]1C[C@@H](O)C=C[C@@]31CCN(CCCCCCOc1ccc(CN3CCOCC3)cc1)C2`, the 50% inhibitory concentration (IC50) on Acetylcholinesterase was 113 nM; on Butyrylcholinesterase, 3900 nM.

As to `COc1ccc2c3c1O[C@H]1C[C@@H](O)C=C[C@@]31CCN(CCCCCCOc1ccc(CN3CCCCC3)cc1)C2`, the IC50 was 5.62 nM on Acetylcholinesterase and 33000 nM against Butyrylcholinesterase. In the same order, the values of `COc1ccc2c3c1O[C@H]1C[C@@H](O)C=C[C@@]31CCN(CCCCCCCCCOc1ccc(CN3CCCCC3)cc1)C2` are 88.1 nM and 64000 nM. For the molecule `CCN(CC)Cc1ccc(OCCCCCCN2CC[C@@]34C=C[C@H](O)C[C@@H]3Oc3c(OC)ccc(c34)C2)cc1`, the values for the 50% inhibitory concentration (IC50) against Acetylcholinesterase and against Butyrylcholinesterase were 8.86 nM and 41000 nM, respectively. As for `COc1ccc2c3c1O[C@H]1C[C@@H](O)C=C[C@@]31CCN(CCCCCCOc1cccc(C(C)N3CCOCC3)c1)C2` (some centres not stated), the half-inhibitory concentration (IC50) against Acetylcholinesterase was 154 nM; on Butyrylcholinesterase, 5800 nM. In the same order, the values of `COc1ccc2c3c1O[C@H]1C[C@@H](O)C=C[C@@]31CCN(CCCCOc1ccc(CN3CCOCC3)cc1)C2` are 99.1 nM and 3300 nM. For `COc1ccc2c3c1O[C@H]1C[C@@H](O)C=C[C@@]31CCN(CCCCCCCCOc1ccc(CN3CCCCC3)cc1)C2`, the IC50 against Acetylcholinesterase was 34.7 nM; at Butyrylcholinesterase, 53000 nM. Consider `COc1ccc2c3c1O[C@H]1C[C@@H](O)C=C[C@@]31CCN(CCCCOc1ccc(C(=O)N3CCCC3)cc1)C2`, for which the IC50 against Acetylcholinesterase was 53.8 nM; on Butyrylcholinesterase it was 5600 nM. For `COc1ccc2c3c1O[C@H]1C[C@@H](O)C=C[C@@]31CCN(CCOc1ccc(CN3CCCCC3)cc1)C2` the same measures were 24.5 nM and 21000 nM. With `COc1ccc2c3c1O[C@H]1C[C@@H](O)C=C[C@@]31CCN(CCCCCCOC1CCN(Cc3ccccc3)CC1)C2`, the IC50 on Acetylcholinesterase is 222 nM; on Butyrylcholinesterase it was 5500 nM. In the same order, the values of `COc1ccc2c3c1O[C@H]1C[C@@H](O)C=C[C@@]31CCN(CCCCCCCCCCCCOc1ccc(CN3CCCCC3)cc1)C2` are 58.1 nM and 1200 nM. Regarding `COc1ccc2c3c1O[C@H]1C[C@@H](O)C=C[C@@]31CCN(CCCCCCOc1ccc(C(=O)N3CCCC3)cc1)C2`, the IC50 came out at 122 nM against Acetylcholinesterase and 9400 nM on Butyrylcholinesterase. For `COc1ccc2c3c1O[C@H]1C[C@@H](O)C=C[C@@]31CCN(CCCOc1ccc(CN3CCCCC3)cc1)C2`, the results for the half-inhibitory concentration (IC50) at Acetylcholinesterase and at Butyrylcholinesterase were 18 nM and 24000 nM, respectively.
